Source: PMC3463134 (Chembiochem : a European journal of chemical biology, 2012)

T1: KtzI (Kutzneria sp. 744, UniProt A8CF85)
T1 sequence (A8CF85 1-424): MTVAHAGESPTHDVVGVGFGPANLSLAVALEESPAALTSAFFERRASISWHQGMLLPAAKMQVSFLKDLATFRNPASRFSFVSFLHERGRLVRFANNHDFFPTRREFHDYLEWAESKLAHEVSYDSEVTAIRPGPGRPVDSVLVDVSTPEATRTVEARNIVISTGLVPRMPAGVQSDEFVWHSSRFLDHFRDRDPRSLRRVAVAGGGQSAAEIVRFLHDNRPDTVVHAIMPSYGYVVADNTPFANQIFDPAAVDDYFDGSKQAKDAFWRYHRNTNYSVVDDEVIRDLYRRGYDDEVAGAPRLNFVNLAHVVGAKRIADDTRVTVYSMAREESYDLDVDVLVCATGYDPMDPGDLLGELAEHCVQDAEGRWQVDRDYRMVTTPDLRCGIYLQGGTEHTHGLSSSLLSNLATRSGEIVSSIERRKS

B1: KtzI (Kutzneria sp. 744) (protein)
chain: MTVAHAGESPTHDVVGVGFGPANLSLAVALEESPAALTSAFFERRASISWHQGMLLPAAKMQVSFLKDLATFRNPASRFSFVSFLHERGRLVRFANNHDFFPTRREFHDYLEWAESKLAHEVSYDSEVTAIRPGPGRPVDSVLVDVSTPEATRTVEARNIVISTGLVPRMPAGVQSDEFVWHSSRFLDHFRDRDPRSLRRVAVAGGGQSAAEIVRFLHDNRPDTVVHAIMPSYGYVVADNTPFANQIFDPAAVDDYFDGSKQAKDAFWRYHRNTNYSVVDDEVIRDLYRRGYDDEVAGAPRLNFVNLAHVVGAKRIADDTRVTVYSMAREESYDLDVDVLVCATGYDPMDPGDLLGELAEHCVQDAEGRWQVDRDYRMVTTPDLRCGIYLQGGTEHTHGLSSSLLSNLATRSGEIVSSIERRKS

Tests used:
KtzI = target: T1, KtzI; assay: NADPH oxidation assay; assay type: biochemical; conditions: FAD, non-substrate effector (uncoupled NADPH oxidation)
purified protein = substrate: NCCC[C@H](N)C(=O)O; assay: purified protein; conditions: FAD cofactor; NAD(P)H and O2 cosubstrates; apparent kcat

| Molecule | NADPH oxidation assay (KtzI) | Km (purified protein) [µM] | kcat (purified protein) [s⁻¹] |
| --- | --- | --- | --- |
| NCCC[C@@H](N)C(=O)O [D-Orn] | L-Lys and D-Orn were observed to be non-substrate effectors of the enzyme | – | – |
| NCCCC[C@H](N)C(=O)O [L-Lys] | L-Lys and D-Orn were observed to be non-substrate effectors of the enzyme | – | – |
| B1 | – | 91 ± 8 | 0.116 ± 0.00217 |
